Measured values as given in ChEMBL document CHEMBL5291721, “A preclinical secondary pharmacology resource illuminates target-adverse drug reaction associations of marketed drugs” (Nat Commun, 2023).

Columns and labels:
[1] = target: T1, Corticotropin-releasing factor receptor 1 (Homo sapiens, UniProt P34998)
T1 sequence (P34998 whole entry): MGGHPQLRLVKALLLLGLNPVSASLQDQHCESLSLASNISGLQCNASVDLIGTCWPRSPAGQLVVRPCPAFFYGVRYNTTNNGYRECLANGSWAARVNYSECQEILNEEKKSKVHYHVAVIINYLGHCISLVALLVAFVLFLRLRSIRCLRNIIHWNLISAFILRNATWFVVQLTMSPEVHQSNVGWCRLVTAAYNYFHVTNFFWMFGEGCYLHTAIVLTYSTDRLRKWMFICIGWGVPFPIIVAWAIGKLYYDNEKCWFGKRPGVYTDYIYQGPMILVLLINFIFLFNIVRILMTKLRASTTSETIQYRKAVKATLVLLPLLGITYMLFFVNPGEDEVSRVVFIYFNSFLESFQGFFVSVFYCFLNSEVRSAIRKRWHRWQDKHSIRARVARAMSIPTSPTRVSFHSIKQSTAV

[2] = target: T2, Neuropeptide Y receptor type 2 (Homo sapiens, UniProt P49146)
T2 sequence (P49146 whole entry): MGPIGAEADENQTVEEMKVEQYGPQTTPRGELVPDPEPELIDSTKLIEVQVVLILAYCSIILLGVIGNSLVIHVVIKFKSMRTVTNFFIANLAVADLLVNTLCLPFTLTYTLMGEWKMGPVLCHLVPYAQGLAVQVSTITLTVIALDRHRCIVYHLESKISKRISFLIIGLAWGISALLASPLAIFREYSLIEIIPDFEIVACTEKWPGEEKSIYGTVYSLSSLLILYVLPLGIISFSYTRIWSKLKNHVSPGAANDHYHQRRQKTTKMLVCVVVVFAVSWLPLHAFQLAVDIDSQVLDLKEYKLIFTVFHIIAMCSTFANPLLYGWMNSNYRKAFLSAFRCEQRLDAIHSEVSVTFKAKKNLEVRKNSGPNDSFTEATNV

[3] = target: Estrogen receptor beta (Homo sapiens, UniProt Q92731)
Chain of Estrogen receptor beta (Q92731 whole entry): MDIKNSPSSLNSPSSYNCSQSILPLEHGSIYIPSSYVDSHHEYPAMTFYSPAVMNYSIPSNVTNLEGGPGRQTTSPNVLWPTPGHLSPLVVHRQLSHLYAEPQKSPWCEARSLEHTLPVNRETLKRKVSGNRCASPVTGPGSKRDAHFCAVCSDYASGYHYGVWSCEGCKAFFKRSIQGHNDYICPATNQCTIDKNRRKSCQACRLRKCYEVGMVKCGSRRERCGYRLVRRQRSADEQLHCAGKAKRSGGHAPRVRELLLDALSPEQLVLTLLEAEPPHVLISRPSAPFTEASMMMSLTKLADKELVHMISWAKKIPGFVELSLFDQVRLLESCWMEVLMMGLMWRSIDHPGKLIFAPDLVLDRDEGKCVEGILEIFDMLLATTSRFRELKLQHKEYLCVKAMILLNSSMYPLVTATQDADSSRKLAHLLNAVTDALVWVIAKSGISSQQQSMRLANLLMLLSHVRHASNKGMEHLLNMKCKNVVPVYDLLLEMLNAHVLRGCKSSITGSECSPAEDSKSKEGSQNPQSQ

[4] = target: Prothrombin (Homo sapiens, UniProt P00734); format: functional
[5] = target: Histamine H3 receptor (Homo sapiens, UniProt Q9Y5N1)
Chain of Histamine H3 receptor (Q9Y5N1 whole entry): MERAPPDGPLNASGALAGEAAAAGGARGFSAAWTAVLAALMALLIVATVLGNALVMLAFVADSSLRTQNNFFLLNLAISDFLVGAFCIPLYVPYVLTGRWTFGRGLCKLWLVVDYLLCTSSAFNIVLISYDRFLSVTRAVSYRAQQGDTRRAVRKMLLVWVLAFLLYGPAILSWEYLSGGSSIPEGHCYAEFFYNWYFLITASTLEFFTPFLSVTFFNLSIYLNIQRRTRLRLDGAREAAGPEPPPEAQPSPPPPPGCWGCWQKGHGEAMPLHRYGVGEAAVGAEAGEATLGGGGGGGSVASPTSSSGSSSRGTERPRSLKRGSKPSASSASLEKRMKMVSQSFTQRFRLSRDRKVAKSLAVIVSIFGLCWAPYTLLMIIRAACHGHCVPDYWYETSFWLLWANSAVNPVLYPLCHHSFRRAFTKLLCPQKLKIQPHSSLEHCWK

[6] = target: D(3) dopamine receptor (Homo sapiens, UniProt P35462)
Chain of D(3) dopamine receptor (P35462 whole entry): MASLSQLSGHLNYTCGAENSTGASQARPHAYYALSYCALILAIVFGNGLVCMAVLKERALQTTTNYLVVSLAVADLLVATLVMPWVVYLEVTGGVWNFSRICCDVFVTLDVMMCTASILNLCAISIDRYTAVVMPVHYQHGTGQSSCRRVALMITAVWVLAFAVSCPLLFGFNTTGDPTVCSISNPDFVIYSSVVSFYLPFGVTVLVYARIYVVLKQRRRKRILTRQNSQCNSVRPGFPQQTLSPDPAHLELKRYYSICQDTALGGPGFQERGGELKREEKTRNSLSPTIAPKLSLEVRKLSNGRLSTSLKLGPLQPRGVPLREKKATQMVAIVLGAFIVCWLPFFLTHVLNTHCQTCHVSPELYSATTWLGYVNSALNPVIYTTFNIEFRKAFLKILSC

[7] = target: T3, Thromboxane A2 receptor (Homo sapiens, UniProt P21731); format: functional, cell-based
T3 sequence (P21731 whole entry): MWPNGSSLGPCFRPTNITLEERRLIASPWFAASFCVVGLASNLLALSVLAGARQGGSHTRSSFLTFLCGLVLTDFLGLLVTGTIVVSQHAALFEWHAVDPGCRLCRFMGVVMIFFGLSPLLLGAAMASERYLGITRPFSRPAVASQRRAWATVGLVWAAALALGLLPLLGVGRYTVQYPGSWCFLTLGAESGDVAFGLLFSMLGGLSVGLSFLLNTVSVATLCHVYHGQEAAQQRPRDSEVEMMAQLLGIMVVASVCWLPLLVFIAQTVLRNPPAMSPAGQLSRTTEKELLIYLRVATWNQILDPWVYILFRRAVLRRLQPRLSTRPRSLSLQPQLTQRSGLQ

[8] = target: T3, Thromboxane A2 receptor; format: functional, cell-based; remark: listed apart in the source
[9] = target: T4, Alpha-2A adrenergic receptor (Homo sapiens, UniProt P08913)
T4 sequence (P08913 whole entry): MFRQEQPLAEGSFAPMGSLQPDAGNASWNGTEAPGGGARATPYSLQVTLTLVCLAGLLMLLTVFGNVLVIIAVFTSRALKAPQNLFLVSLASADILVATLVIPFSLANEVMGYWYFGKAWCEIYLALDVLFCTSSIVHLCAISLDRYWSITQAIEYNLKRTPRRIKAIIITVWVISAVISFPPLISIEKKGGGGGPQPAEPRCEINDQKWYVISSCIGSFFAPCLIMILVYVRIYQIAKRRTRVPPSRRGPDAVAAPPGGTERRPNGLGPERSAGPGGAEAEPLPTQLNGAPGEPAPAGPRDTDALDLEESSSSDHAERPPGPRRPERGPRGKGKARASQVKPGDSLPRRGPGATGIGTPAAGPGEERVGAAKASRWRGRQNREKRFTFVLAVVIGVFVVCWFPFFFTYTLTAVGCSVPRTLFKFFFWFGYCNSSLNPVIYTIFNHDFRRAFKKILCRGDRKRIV

[10] = target: T5, Alpha-1A adrenergic receptor (Homo sapiens, UniProt P35348); format: functional, cell-based
T5 sequence (P35348 whole entry): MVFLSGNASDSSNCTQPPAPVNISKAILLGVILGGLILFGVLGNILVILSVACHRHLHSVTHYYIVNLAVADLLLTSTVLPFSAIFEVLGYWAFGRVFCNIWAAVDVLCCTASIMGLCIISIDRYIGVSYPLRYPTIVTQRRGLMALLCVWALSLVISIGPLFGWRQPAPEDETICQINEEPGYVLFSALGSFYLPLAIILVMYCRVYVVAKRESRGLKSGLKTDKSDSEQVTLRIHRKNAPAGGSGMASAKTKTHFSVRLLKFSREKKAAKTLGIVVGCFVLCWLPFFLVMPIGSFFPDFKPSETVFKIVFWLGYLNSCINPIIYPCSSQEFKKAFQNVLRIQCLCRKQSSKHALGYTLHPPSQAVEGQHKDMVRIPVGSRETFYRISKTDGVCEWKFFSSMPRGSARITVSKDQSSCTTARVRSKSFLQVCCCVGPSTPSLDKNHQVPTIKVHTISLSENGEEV

[11] = target: T6, Muscarinic acetylcholine receptor M2 (Homo sapiens, UniProt P08172)
T6 sequence (P08172 whole entry): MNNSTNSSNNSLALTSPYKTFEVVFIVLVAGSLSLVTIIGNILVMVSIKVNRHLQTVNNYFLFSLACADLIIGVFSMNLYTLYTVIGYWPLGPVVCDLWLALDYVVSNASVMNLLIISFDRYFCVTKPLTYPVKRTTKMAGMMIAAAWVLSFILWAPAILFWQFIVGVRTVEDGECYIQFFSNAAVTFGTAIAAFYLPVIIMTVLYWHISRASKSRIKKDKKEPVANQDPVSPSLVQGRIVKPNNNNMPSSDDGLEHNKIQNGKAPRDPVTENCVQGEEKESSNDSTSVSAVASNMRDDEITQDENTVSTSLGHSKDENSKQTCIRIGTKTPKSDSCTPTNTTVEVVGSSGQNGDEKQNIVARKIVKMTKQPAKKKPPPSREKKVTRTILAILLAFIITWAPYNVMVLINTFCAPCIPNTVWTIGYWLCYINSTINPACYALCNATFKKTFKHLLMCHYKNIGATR

[12] = target: T5, Alpha-1A adrenergic receptor; format: functional, cell-based; remark: listed apart in the source
Further: assay procedure not described here.

AC50 [1] [µM] | AC50 [2] [µM] | AC50 [3] [µM] | AC50 [4] [µM] | AC50 [5] [µM] | AC50 [6] [µM] | AC50 [7] [µM] | AC50 [8] [µM] | AC50 [9] [µM] | AC50 [10] [µM] | AC50 [11] [µM] | AC50 [12] [µM] | Compound
> 30 | > 30 | > 30 |  |  |  |  |  |  |  |  |  | Cn1c(=O)cc(N2CCC[C@@H](N)C2)n(Cc2ccccc2C#N)c1=O [ALOGLIPTIN]
 |  |  | > 30 | > 30 | > 30 | > 30 | > 30 | 16.9 | > 30 | 4.27 | 9.77 | Nc1c2ccccc2nc2ccccc12 [AMINACRINE]
> 30 | > 30 | > 30 |  |  |  |  |  |  |  |  |  | CC(=O)OCC(=O)[C@@]1(O)[C@H](C)C[C@H]2[C@@H]3CCC4=CC(=O)C=C[C@]4(C)[C@@]3(F)[C@@H](O)C[C@@]21C [DEXAMETHASONE ACETATE]
 |  |  | > 30 | > 30 | > 30 | > 30 | > 30 | > 30 | > 30 | > 30 | > 30 | O=C(O)CCCCC1CCSS1 (stereo not drawn) [LIPOIC ACID, ALPHA]
